According to ChEMBL document CHEMBL1133079, “Synthesis and antibacterial activity of novel 6-O-substituted erythromycin A derivatives” (2000):
Values after ≈ are worked out from the molar mass of the structure shown.

Assays:
Type in all cases: functional
[1] = system: Streptococcus pyogenes; experiment: In vitro minimum inhibitory concentration against Streptococcus pyogenes PIU 2548 using standard agar dilution method
[2] = system: Streptococcus pneumoniae; experiment: In vitro minimum inhibitory concentration against Streptococcus pneumoniae 5649.
[3] = system: Staphylococcus aureus; experiment: In vitro minimum inhibitory concentration against Staphylococcus aureus 6538P using standard agar dilution method
[4] = system: Streptococcus pyogenes; experiment: In vitro minimum inhibitory concentration against Streptococcus pyogenes 930 using standard agar dilution method
[5] = system: Streptococcus pneumoniae; experiment: In vitro minimum inhibitory concentration against Streptococcus pneumoniae 5737.
[6] = system: Streptococcus pyogenes; experiment: In vitro minimum inhibitory concentration against Streptococcus pyogenes EES61 using standard agar dilution method
[7] = system: Staphylococcus aureus; experiment: In vitro minimum inhibitory concentration against Staphylococcus aureus A5177.
[8] = system: Streptococcus pneumoniae; experiment: In vitro minimum inhibitory concentration against Streptococcus pneumoniae ATCC 6303.
[9] = system: Haemophilus influenzae; experiment: In vitro minimum inhibitory concentration against Haemophilus influenzae DILL using standard agar dilution method

MIC [1] [µg/mL]	MIC [2] [µg/mL]	MIC [3] [µg/mL]	MIC [4] [µg/mL]	MIC [5] [µg/mL]	MIC [6] [µg/mL]	MIC [7] [µg/mL]	MIC [8] [µg/mL]	MIC [9] [µg/mL]	SMILES
16 (≈ 19.4 µM)	16 (≈ 19.4 µM)	1.56 (≈ 1.89 µM)	> 128	64 (≈ 77.7 µM)	0.06 (≈ 0.0728 µM)	12.5 (≈ 15.2 µM)			CC[C@H]1OC(=O)[C@H](C)[C@@H](O[C@H]2C[C@@](C)(OC)[C@@H](O)[C@H](C)O2)[C@H](C)[C@@H](O[C@@H]2O[C@H](C)C[C@H](N(C)C)[C@H]2O)[C@@](C)(OCc2ccccc2)C[C@@H](C)C(=O)[C@H](C)[C@@H](O)[C@]1(C)O
16 (≈ 18.8 µM)	4 (≈ 4.71 µM)	0.39 (≈ 0.459 µM)	32 (≈ 37.6 µM)	32 (≈ 37.6 µM)	0.03 (≈ 0.0353 µM)	6.2 (≈ 7.29 µM)	0.06 (≈ 0.0706 µM)	4 (≈ 4.71 µM)	CC[C@H]1OC(=O)[C@H](C)[C@@H](O[C@H]2C[C@@](C)(OC)[C@@H](O)[C@H](C)O2)[C@H](C)[C@@H](O[C@@H]2O[C@H](C)C[C@H](N(C)C)[C@H]2O)[C@@](C)(OC/C=C/c2ccccc2)C[C@@H](C)C(=O)[C@H](C)[C@@H](O)[C@]1(C)O
> 128		25 (≈ 31.6 µM)	> 128		4 (≈ 5.06 µM)	25 (≈ 31.6 µM)		> 128	CC[C@H]1OC(=O)[C@H](C)[C@@H](O[C@H]2C[C@@](C)(OC)[C@@H](O)[C@H](C)O2)[C@H](C)[C@@H](O[C@@H]2O[C@H](C)C[C@H](N(C)C)[C@H]2O)[C@@](C)(OCC2CO2)C[C@@H](C)C(=O)[C@H](C)[C@@H](O)[C@]1(C)O (stereo partly drawn)
	16 (≈ 20.7 µM)	0.2 (≈ 0.259 µM)	> 128	> 128	0.03 (≈ 0.0389 µM)	12.5 (≈ 16.2 µM)	0.06 (≈ 0.0777 µM)	16 (≈ 20.7 µM)	C#CCO[C@@]1(C)C[C@@H](C)C(=O)[C@H](C)[C@@H](O)[C@](C)(O)[C@@H](CC)OC(=O)[C@H](C)[C@@H](O[C@H]2C[C@@](C)(OC)[C@@H](O)[C@H](C)O2)[C@H](C)[C@H]1O[C@@H]1O[C@H](C)C[C@H](N(C)C)[C@H]1O
64 (≈ 73.8 µM)	32 (≈ 36.9 µM)	0.78 (≈ 0.9 µM)	> 128	> 128	0.25 (≈ 0.288 µM)	12.5 (≈ 14.4 µM)	0.125 (≈ 0.144 µM)	8 (≈ 9.23 µM)	CC[C@H]1OC(=O)[C@H](C)[C@@H](O[C@H]2C[C@@](C)(OC)[C@@H](O)[C@H](C)O2)[C@H](C)[C@@H](O[C@@H]2O[C@H](C)C[C@H](N(C)C)[C@H]2O)[C@@](C)(OCCNCc2ccccc2)C[C@@H](C)C(=O)[C@H](C)[C@@H](O)[C@]1(C)O
8 (≈ 9.5 µM)	8 (≈ 9.5 µM)	3.1 (≈ 3.68 µM)	8 (≈ 9.5 µM)	8 (≈ 9.5 µM)	1 (≈ 1.19 µM)	12.5 (≈ 14.8 µM)	1 (≈ 1.19 µM)	64 (≈ 76 µM)	CC[C@H]1OC(=O)[C@H](C)[C@@H](O[C@H]2C[C@@](C)(OC)[C@@H](O)[C@H](C)O2)[C@H](C)[C@@H](O[C@@H]2O[C@H](C)C[C@H](N(C)C)[C@H]2O)[C@@](C)(OCc2ccc(F)cc2)C[C@@H](C)C(=O)[C@H](C)[C@@H](O)[C@]1(C)O
64 (≈ 80.9 µM)	32 (≈ 40.5 µM)	0.2 (≈ 0.253 µM)		> 128	0.015 (≈ 0.019 µM)		0.06 (≈ 0.0759 µM)	16 (≈ 20.2 µM)	CC[C@H]1OC(=O)[C@H](C)[C@@H](O[C@H]2C[C@@](C)(OC)[C@@H](O)[C@H](C)O2)[C@H](C)[C@@H](O[C@@H]2O[C@H](C)C[C@H](N(C)C)[C@H]2O)[C@@](C)(OC/C=N/O)C[C@@H](C)C(=O)[C@H](C)[C@@H](O)[C@]1(C)O
4 (≈ 4.44 µM)	4 (≈ 4.44 µM)	0.2 (≈ 0.222 µM)	64 (≈ 71 µM)	128 (≈ 142 µM)	0.06 (≈ 0.0666 µM)	3.1 (≈ 3.44 µM)	0.06 (≈ 0.0666 µM)	8 (≈ 8.88 µM)	CC[C@H]1OC(=O)[C@H](C)[C@@H](O[C@H]2C[C@@](C)(OC)[C@@H](O)[C@H](C)O2)[C@H](C)[C@@H](O[C@@H]2O[C@H](C)C[C@H](N(C)C)[C@H]2O)[C@@](C)(OC/C=C/c2cnc3ccccc3c2)C[C@@H](C)C(=O)[C@H](C)[C@@H](O)[C@]1(C)O
64 (≈ 82.3 µM)	32 (≈ 41.1 µM)	0.39 (≈ 0.501 µM)	> 64	> 64	0.125 (≈ 0.161 µM)	6.2 (≈ 7.97 µM)	0.125 (≈ 0.161 µM)	8 (≈ 10.3 µM)	CC[C@H]1OC(=O)[C@H](C)[C@@H](O[C@H]2C[C@@](C)(OC)[C@@H](O)[C@H](C)O2)[C@H](C)[C@@H](O[C@@H]2O[C@H](C)C[C@H](N(C)C)[C@H]2O)[C@@](C)(OCCO)C[C@@H](C)C(=O)[C@H](C)[C@@H](O)[C@]1(C)O
128 (≈ 165 µM)	64 (≈ 82.5 µM)	0.78 (≈ 1.01 µM)	> 128	> 128	0.06 (≈ 0.0773 µM)	25 (≈ 32.2 µM)	0.5 (≈ 0.644 µM)	8 (≈ 10.3 µM)	CC[C@H]1OC(=O)[C@H](C)[C@@H](O[C@H]2C[C@@](C)(OC)[C@@H](O)[C@H](C)O2)[C@H](C)[C@@H](O[C@@H]2O[C@H](C)C[C@H](N(C)C)[C@H]2O)[C@@](C)(OCC=O)C[C@@H](C)C(=O)[C@H](C)[C@@H](O)[C@]1(C)O
128 (≈ 148 µM)	64 (≈ 73.8 µM)	0.78 (≈ 0.9 µM)	> 128	> 128	0.125 (≈ 0.144 µM)	25 (≈ 28.8 µM)	0.25 (≈ 0.288 µM)	8 (≈ 9.23 µM)	CC[C@H]1OC(=O)[C@H](C)[C@@H](O[C@H]2C[C@@](C)(OC)[C@@H](O)[C@H](C)O2)[C@H](C)[C@@H](O[C@@H]2O[C@H](C)C[C@H](N(C)C)[C@H]2O)[C@@](C)(OC/C=N/Nc2ccccn2)C[C@@H](C)C(=O)[C@H](C)[C@@H](O)[C@]1(C)O
	64 (≈ 71.3 µM)	0.39 (≈ 0.435 µM)		> 128	0.125 (≈ 0.139 µM)	6.2 (≈ 6.91 µM)	0.125 (≈ 0.139 µM)	8 (≈ 8.92 µM)	CC[C@H]1OC(=O)[C@H](C)[C@@H](O[C@H]2C[C@@](C)(OC)[C@@H](O)[C@H](C)O2)[C@H](C)[C@@H](O[C@@H]2O[C@H](C)C[C@H](N(C)C)[C@H]2O)[C@@](C)(OCC(O)CNCc2ccccc2)C[C@@H](C)C(=O)[C@H](C)[C@@H](O)[C@]1(C)O (stereo partly drawn)
16 (≈ 17.6 µM)	32 (≈ 35.1 µM)	0.2 (≈ 0.219 µM)	> 64	32 (≈ 35.1 µM)	0.03 (≈ 0.0329 µM)	6.2 (≈ 6.8 µM)	0.008 (≈ 0.00878 µM)	4 (≈ 4.39 µM)	CC[C@H]1OC(=O)[C@H](C)[C@@H](O[C@H]2C[C@@](C)(OC)[C@@H](O)[C@H](C)O2)[C@H](C)[C@@H](O[C@@H]2O[C@H](C)C[C@H](N(C)C)[C@H]2O)[C@@](C)(OCC(O)CNCCc2ccccc2)C[C@@H](C)C(=O)[C@H](C)[C@@H](O)[C@]1(C)O (stereo partly drawn)
8 (≈ 8.89 µM)	16 (≈ 17.8 µM)	0.78 (≈ 0.867 µM)	8 (≈ 8.89 µM)	8 (≈ 8.89 µM)	0.06 (≈ 0.0667 µM)	12.5 (≈ 13.9 µM)	0.25 (≈ 0.278 µM)	4 (≈ 4.44 µM)	CC[C@H]1OC(=O)[C@H](C)[C@@H](O[C@H]2C[C@@](C)(OC)[C@@H](O)[C@H](C)O2)[C@H](C)[C@@H](O[C@@H]2O[C@H](C)C[C@H](N(C)C)[C@H]2O)[C@@](C)(OC/C=C/c2cccc3ccccc23)C[C@@H](C)C(=O)[C@H](C)[C@@H](O)[C@]1(C)O
32 (≈ 35.7 µM)	16 (≈ 17.9 µM)	0.05 (≈ 0.0559 µM)	> 128	> 128	0.03 (≈ 0.0335 µM)	3.1 (≈ 3.46 µM)	0.03 (≈ 0.0335 µM)	4 (≈ 4.47 µM)	CC[C@H]1OC(=O)[C@H](C)[C@@H](O[C@H]2C[C@@](C)(OC)[C@@H](O)[C@H](C)O2)[C@H](C)[C@@H](O[C@@H]2O[C@H](C)C[C@H](N(C)C)[C@H]2O)[C@@](C)(OCCNCCCc2ccccc2)C[C@@H](C)C(=O)[C@H](C)[C@@H](O)[C@]1(C)O
64 (≈ 79.5 µM)	32 (≈ 39.8 µM)	0.78 (≈ 0.969 µM)	> 128	> 128	0.125 (≈ 0.155 µM)	25 (≈ 31.1 µM)	0.125 (≈ 0.155 µM)	16 (≈ 19.9 µM)	CC[C@H]1OC(=O)[C@H](C)[C@@H](O[C@H]2C[C@@](C)(OC)[C@@H](O)[C@H](C)O2)[C@H](C)[C@@H](O[C@@H]2O[C@H](C)C[C@H](N(C)C)[C@H]2O)[C@@](C)(OC/C=N/OC)C[C@@H](C)C(=O)[C@H](C)[C@@H](O)[C@]1(C)O
64 (≈ 82.7 µM)		0.78 (≈ 1.01 µM)	> 128			12.5 (≈ 16.1 µM)		32 (≈ 41.3 µM)	C=CCO[C@@]1(C)C[C@@H](C)C(=O)[C@H](C)[C@@H](O)[C@](C)(O)[C@@H](CC)OC(=O)[C@H](C)[C@@H](O[C@H]2C[C@@](C)(OC)[C@@H](O)[C@H](C)O2)[C@H](C)[C@H]1O[C@@H]1O[C@H](C)C[C@H](N(C)C)[C@H]1O
128 (≈ 162 µM)		3.1 (≈ 3.92 µM)	> 128						CC[C@H]1OC(=O)[C@H](C)[C@@H](O[C@H]2C[C@@](C)(OC)[C@@H](O)[C@H](C)O2)[C@H](C)[C@@H](O[C@@H]2O[C@H](C)C[C@H](N(C)C)[C@H]2O)[C@@](C)(OCC(C)=O)C[C@@H](C)C(=O)[C@H](C)[C@@H](O)[C@]1(C)O
32 (≈ 41.4 µM)	16 (≈ 20.7 µM)	0.2 (≈ 0.259 µM)	> 128	> 128	0.03 (≈ 0.0388 µM)		0.06 (≈ 0.0776 µM)	8 (≈ 10.3 µM)	CC[C@H]1OC(=O)[C@H](C)[C@@H](O[C@H]2C[C@@](C)(OC)[C@@H](O)[C@H](C)O2)[C@H](C)[C@@H](O[C@@H]2O[C@H](C)C[C@H](N(C)C)[C@H]2O)[C@@](C)(OCC#N)C[C@@H](C)C(=O)[C@H](C)[C@@H](O)[C@]1(C)O
128 (≈ 159 µM)	64 (≈ 79.6 µM)	0.78 (≈ 0.97 µM)	> 128	> 128	0.06 (≈ 0.0746 µM)	25 (≈ 31.1 µM)	0.125 (≈ 0.155 µM)	8 (≈ 9.95 µM)	CC[C@H]1OC(=O)[C@H](C)[C@@H](O[C@H]2C[C@@](C)(OC)[C@@H](O)[C@H](C)O2)[C@H](C)[C@@H](O[C@@H]2O[C@H](C)C[C@H](N(C)C)[C@H]2O)[C@@](C)(OC/C=N/NC)C[C@@H](C)C(=O)[C@H](C)[C@@H](O)[C@]1(C)O
8 (≈ 9.08 µM)	4 (≈ 4.54 µM)	0.2 (≈ 0.227 µM)	64 (≈ 72.6 µM)	64 (≈ 72.6 µM)	0.015 (≈ 0.017 µM)	12.5 (≈ 14.2 µM)	0.03 (≈ 0.034 µM)	2 (≈ 2.27 µM)	CC[C@H]1OC(=O)[C@H](C)[C@@H](O[C@H]2C[C@@](C)(OC)[C@@H](O)[C@H](C)O2)[C@H](C)[C@@H](O[C@@H]2O[C@H](C)C[C@H](N(C)C)[C@H]2O)[C@@](C)(OCCNCCc2ccccc2)C[C@@H](C)C(=O)[C@H](C)[C@@H](O)[C@]1(C)O
